Assay results: patent US20230348424A1, “HETEROCYCLIC COMPOUNDS AND METHODS OF USE” (Schrödinger, Inc., priority 2022, published 2023)

Tests used:
human SOS1 = human SOS1 (Homo sapiens (Human), UniProt Q07889); assay: Surface Plasmon Resonance (SPR) SOS1 Binding Assay; conditions: biotinylated SOS1 (res. 564-1049), Biacore 8K, 25° C., kinetic or steady state fit, 1:1 binding; read-out: hSOS1 KD
In short: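 Biotinylated Avi-tagged human SOS1 (res. 564-1049) captured on streptavidin chip (~3,000 RU); compounds injected 60 s, dissociation 600 s, at 25° C in Tris pH 8.0 buffer with 5% DMSO. Reference- and blank-subtracted; KD from kinetic or steady-state 1:1 binding fit.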

[1] = target: SOS1:KRAS (G12C) interaction (Homo sapiens (Human), UniProt Q07889); assay: SOS1 KRas(G12C) FRET Assay; assay type: binding; conditions: 0.5 nM His10-SOS1 (res. 564-1049), 2.5 nM GST-KRAS G12C (res. 1-169), 2 hrs at RT
In short: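 GST-KRAS G12C (res. 1-169) at 2.5 nM and His10-SOS1 (res. 564-1049) at 0.5 nM, final, in PBS with 0.1% BSA, 5 mM MgCl2, 100 mM KF, 5 mM DTT and 0.5% DMSO. After 2 h at RT, FRET read at 665/615 nm and normalized to DMSO and no-SOS1 controls. IC50 by non-linear regression.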

| Compound | Kd (human SOS1) [nM] | IC50 [1] [nM] |
| --- | --- | --- |
| C[C@@H](NC(=O)c1cn(C2CC3(CC3)C2)c(=O)cc1N[C@H]1[C@@H]2CN(C)C[C@@H]21)c1cccc(C(F)F)c1F [Example 107, N-((R)-1-(3-(difluoromethyl)-2-fluorophenyl)ethyl)-4-(((1R,5S,6s)-3-methyl-3-azabicyclo[3.1.0]hexan-6-yl)amino)-6-oxo-1-(spiro[2.3]hexan-5-yl)-1,6-dihydropyridine-3-carboxamide] | 3 | 8.4 |
| C[C@@H](NC(=O)c1cn(C23CC(F)(C2)C3)c(=O)cc1NC1[C@@H]2CC[C@H]1CN(C)C2)c1cccc(C(F)F)c1F (stereo partly drawn) [Example 137, N-((R)-1-(3-(difluoromethyl)-2-fluorophenyl)ethyl)-1-(3-fluorobicyclo[1.1.1]pentan-1-yl)-4-(((1R,5S,8r)-3-methyl-3-azabicyclo[3.2.1]octan-8-yl)amino)-6-oxo-1,6-dihydropyridine-3-carboxamide] | 27 | 35.3 |
| Cc1c([C@@H](C)NC(=O)c2cn(C3CCOCC3)c(=O)cc2NCCN(C)C)cccc1C(F)(F)F [Example 2, (R)-4-((2-(dimethylamino)ethyl)amino)-N-(1-(2-methyl-3-(trifluoromethyl)phenyl)ethyl)-6-oxo-1-(tetrahydro-2H-pyran-4-yl)-1,6-dihydropyridine-3-carboxamide] | 27 | 59.6 |
| C[C@@H](NC(=O)c1cn([C@@H]2CC2(C)C)c(=O)cc1N[C@H]1[C@@H]2CN(C)C[C@@H]21)c1cccc(C(F)F)c1F (single isomer, unassigned) [Example 94] | 7 | 13.4 |
| C[C@@H](NC(=O)c1cn([C@@H]2CCC2(F)F)c(=O)cc1NCC1(F)CN(C)C1)c1cccc(C(F)F)c1F [Example 147, 1-((R)-2,2-difluorocyclobutyl)-N-((R)-1-(3-(difluoromethyl)-2-fluorophenyl)ethyl)-4-(((3-fluoro-1-methylazetidin-3-yl)methyl)amino)-6-oxo-1,6-dihydropyridine-3-carboxamide] | 73 | 45 |
| C[C@@H](NC(=O)c1cn(C23CC(F)(C2)C3)c(=O)cc1N[C@H]1CCN(C)C[C@H]1F)c1cccc(C(F)F)c1F [Example 142, N-((R)-1-(3-(difluoromethyl)-2-fluorophenyl)ethyl)-4-(((3R,4S)-3-fluoro-1-methylpiperidin-4-yl)amino)-1-(3-fluorobicyclo[1.1.1]pentan-1-yl)-6-oxo-1,6-dihydropyridine-3-carboxamide] | 4 | 4.9 |
| Cc1c([C@@H](C)NC(=O)c2cn(C3CCOCC3)c(=O)c(C#N)c2NC2CCN(C)CC2)cccc1C(F)(F)F [Example 20, (R)-5-cyano-N-(1-(2-methyl-3-(trifluoromethyl)phenyl)ethyl)-4-((1-methylpiperidin-4-yl)amino)-6-oxo-1-(tetrahydro-2H-pyran-4-yl)-1,6-dihydropyridine-3-carboxamide] | 10.4 | 22.7 |
| C[C@@H](NC(=O)c1cn([C@H]2CCC2(F)F)c(=O)cc1N[C@H]1[C@@H]2CN(C)C[C@@H]21)c1cccc(C(F)F)c1F (single isomer, unassigned) [Example 104] | 24 | 45.4 |
| CNc1cc(=O)n(C2CCOCC2)cc1C(=O)N[C@H](C)c1cccc(C(F)(F)F)c1C [Example 12, (R)-N-(1-(2-methyl-3-(trifluoromethyl)phenyl)ethyl)-4-(methylamino)-6-oxo-1-(tetrahydro-2H-pyran-4-yl)-1,6-dihydropyridine-3-carboxamide] | 245 | 705 |
| C[C@@H](NC(=O)c1cn([C@@H]2CCC2(F)F)c(=O)cc1N[C@H]1[C@@H]2CN(C)C[C@@H]21)c1cccc(C(F)F)c1F (single isomer, unassigned) [Example 103] | 3 | 5.7 |
| C[C@@H](NC(=O)c1cn(C23CC(C2)C3)c(=O)cc1N[C@H]1[C@@H]2CC[C@H]1CN(C)C2)c1cccc(C(F)F)c1F (single isomer, unassigned) [Example 135] | 31 | 52.1 |
| N-((R)-1-(2-fluoro-3- (trifluoromethyl)phenyl)et hyl)-4-(((1R,5S,6s)-3- methyl-3- azabicyclo[3.1.0]hexan-6- yl)amino)-6-oxo-1-(1- (trifluoromethyl)cycloprop yl)-1,6-dihydropyridine-3- carboxamide [Example 120] | 24 | 35.7 |
| C[C@@H](NC(=O)c1cn(C2(C(F)F)CC2)c(=O)cc1N[C@H]1CN2CCC1CC2)c1cccc(C(F)F)c1F [Example 83, N-((R)-1-(3-(difluoromethyl)-2-fluorophenyl)ethyl)-1-(1-(difluoromethyl)cyclopropyl)-6-oxo-4-(((R)-quinuclidin-3-yl)amino)-1,6-dihydropyridine-3-carboxamide] | 20 | 25.7 |
| C[C@@H](NC(=O)c1cn([C@@H]2CCC2(F)F)c(=O)cc1N[C@H]1[C@@H]2CN(C)C[C@@H]21)c1cccc(C(F)(F)F)c1F (single isomer, unassigned) [Example 145] | 37 | 35.2 |
| C[C@@H](NC(=O)c1cn(C2(C(F)F)CC2)c(=O)cc1N[C@@H]1CCNC[C@@H]1F)c1cccc(C(F)F)c1F (single isomer, unassigned) [Example 69] | 13 | 17.4 |
| Cc1c([C@@H](C)NC(=O)c2cn(C3CCOCC3)c(=O)cc2NC2CCOCC2)cccc1C(F)(F)F [Example 42, (R)-N-(1-(2-methyl-3-(trifluoromethyl)phenyl)ethyl)-6-oxo-1-(tetrahydro-2H-pyran-4-yl)-4-((tetrahydro-2H-pyran-4-yl)amino)-1,6-dihydropyridine-3-carboxamide] | 186 | 553 |
| C[C@@H](NC(=O)c1cn(C2CCC(F)(F)CC2)c(=O)cc1N[C@H]1[C@@H]2CN(C)C[C@@H]21)c1cccc(C(F)F)c1F [Example 123, 1-(4,4-difluorocyclohexyl)-N-((R)-1-(3-(difluoromethyl)-2-fluorophenyl)ethyl)-4-(((1R,5S,6s)-3-methyl-3-azabicyclo[3.1.0]hexan-6-yl)amino)-6-oxo-1,6-dihydropyridine-3-carboxamide] | 15 | 23.1 |
| Cc1c([C@@H](C)NC(=O)c2cn(C3CCOCC3)c(=O)cc2N[C@H]2CCCN(C)C2)cccc1C(F)(F)F [Example 6, N-((R)-1-(2-methyl-3-(trifluoromethyl)phenyl)ethyl)-4-(((S)-1-methylpiperidin-3-yl)amino)-6-oxo-1-(tetrahydro-2H-pyran-4-yl)-1,6-dihydropyridine-3-carboxamide] | 30 | 56.7 |
| C[C@@H](NC(=O)c1cn(C2(C(F)F)CCC2)c(=O)cc1N[C@H]1[C@@H]2CN(C)C[C@@H]21)c1cccc(C(F)F)c1F [Example 131, N-((R)-1-(3-(difluoromethyl)-2-fluorophenyl)ethyl)-1-(1-(difluoromethyl)cyclobuty 1)-4-(((1R,5S,6s)-3-methyl-3-azabicyclo[3.1.0]hexan-6-yl)amino)-6-oxo-1,6-dihydropyridine-3-carboxamide] | 17 | 22.1 |
| C[C@@H](NC(=O)c1cn(C2(C(F)F)CC2)c(=O)cc1N[C@H](C)c1cncn1C)c1cccc(C(F)F)c1F [Example 88, N-((R)-1-(3-(difluoromethyl)-2-fluorophenyl)ethyl)-1(1-(difluoromethyl)cyclopropyl)-4(((R)-1-(1-methyl-1H-imidazol-5-yl)ethyl)amino)-6-oxo-1,6-dihydropyridine-3-carboxamide] | 96 | 87.3 |
| Cc1c([C@@H](C)NC(=O)c2cn(C3CCOCC3)c(=O)cc2NCc2cncn2C)cccc1C(F)(F)F [Example 10, (R)-4-(((1-methyl-1H-imidazol-5-yl)methyl)amino)-N-(1-(2-methyl-3-(trifluoromethyl)phenyl)ethyl)-6-oxo-1-(tetrahydro-2H-pyran-4-yl)-1,6-dihydropyridine-3-carboxamide] | 74 | 73 |
| C[C@@H](NC(=O)c1cn(C2(C(F)F)CC2)c(=O)cc1N[C@H]1CCNC[C@H]1F)c1cccc(C(F)F)c1F (single isomer, unassigned) [Example 70] | 4 | 12.7 |
| C[C@@H](NC(=O)c1cn([C@]2(C)CCOC2)c(=O)cc1N[C@H]1[C@@H]2CN(C)C[C@@H]21)c1cccc(C(F)F)c1F [Example 152, N-((R)-1-(3-(difluoromethyl)-2-fluorophenyl)ethyl)-4-(((1R,5S,6s)-3-methyl-3-azabicyclo[3.1.0]hexan-6-yl)amino)-1-((R)-3-methyltetrahydrofuran-3-yl)-6-oxo-1,6-dihydropyridine-3-carboxamide] | 4 | 7.4 |
| Cc1c([C@@H](C)NC(=O)c2cn(C3(C(F)F)CC3)c(=O)cc2NC2CCN(C)CC2)cccc1C(F)(F)F [Example 50, (R)-1-(1-(difluoromethyl)cyclopropyl)-N-(1-(2-methyl-3-(trifluoromethyl)phenyl)ethyl)-4-((1-methylpiperidin-4-yl)amino)-6-oxo-1,6-dihydropyridine-3-carboxamide] | 8 | 20.3 |
| C[C@@H](NC(=O)c1cn([C@@]2(C)CCOC2)c(=O)cc1NC1CCN(C)CC1)c1cccc(C(F)F)c1F (single isomer, unassigned) [Example 47] | 2 | 4.5 |
